# Data reported in US20160137639A1, “TRIAZOLE-ISOXAZOLE COMPOUND AND MEDICAL USE THEREOF” (JAPAN TOBACCO INC., priority 2012, published 2016).
# Experiments:
# mouse RORγ = target: T1, mouse RORγ (Mus musculus, UniProt P51450); test: Luciferase reporter gene assay of inhibitory effect against RORγ transcriptional activity (GAL4-mRORγ plasmid in CHO cells); format: cell-based; settings: read-out: LUC EC50 mRORg
# T1 construct: mouse, NM_011281.2 and from Ile251 to Lys516; expressed in transfected cells; host or cells: CHO cells (transient co-transfection with pG5-Luc reporter)
# T1 sequence (P51450 251-516): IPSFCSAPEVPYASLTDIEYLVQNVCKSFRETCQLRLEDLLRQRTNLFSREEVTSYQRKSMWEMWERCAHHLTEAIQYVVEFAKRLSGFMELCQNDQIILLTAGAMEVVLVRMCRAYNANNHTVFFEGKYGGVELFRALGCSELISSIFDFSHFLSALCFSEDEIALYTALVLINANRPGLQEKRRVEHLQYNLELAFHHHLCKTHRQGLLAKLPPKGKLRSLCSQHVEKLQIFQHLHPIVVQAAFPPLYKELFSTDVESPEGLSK
# In short: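 Readout is intracellular luciferase after 2-day compound exposure (8 concentrations, 0.1% DMSO) in CHO cells expressing GAL4 fused to mouse RORγ LBD residues Ile251–Lys516 plus pG5-Luc reporter. EC50 fitted from %-of-control; points showing resazurin-detected cytotoxicity dropped.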
# human RORγ = target: T2, human RORγ (Homo sapiens, UniProt P51449); test: Luciferase reporter gene assay of inhibitory effect against RORγ transcriptional activity (GAL4-hRORγ plasmid in CHO cells); format: cell-based; settings: read-out: LUC EC50 hRORg
# T2 construct: human, NM_005060.3 and from Ser253 to Lys518; expressed in transfected cells; host or cells: CHO cells (transient co-transfection with pG5-Luc reporter)
# T2 sequence (P51449 253-518): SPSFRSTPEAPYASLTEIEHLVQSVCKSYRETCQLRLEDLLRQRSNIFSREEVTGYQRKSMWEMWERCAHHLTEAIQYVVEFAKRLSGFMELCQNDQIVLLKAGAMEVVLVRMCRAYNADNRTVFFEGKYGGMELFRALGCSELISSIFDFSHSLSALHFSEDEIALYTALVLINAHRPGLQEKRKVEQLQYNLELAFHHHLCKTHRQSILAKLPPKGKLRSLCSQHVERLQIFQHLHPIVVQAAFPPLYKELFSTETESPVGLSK
Structure (SMILES),EC50 (mouse RORγ),EC50 (human RORγ)
Cc1ccc(NC(=O)C[C@H](CNC(=O)CC#N)c2noc([C@H]3C[C@@H](CC(C)C)C3)c2C2CC2)c(C)c1 [Example F-647],< 3 µM,< 3 µM
Cc1ccc(NC(=O)[C@H]2CN(C(=O)CN(C)C)C[C@@H]2c2nnc([C@H]3C[C@@H](CC(C)(C)C)C3)n2C2CC2)c(C)c1 [Example F-648],< 3 µM,< 3 µM
CCN(CC)C(=O)CN1C[C@H](C(=O)Nc2ccc(C)cc2C)[C@@H](c2nnc([C@H]3C[C@@H](CC(C)(C)C)C3)n2C2CC2)C1 [Example F-649],< 3 µM,< 3 µM
CCN(CC)CC(=O)N1C[C@H](C(=O)Nc2ccc(C)cc2C)[C@@H](c2nnc([C@H]3C[C@@H](CC(C)(C)C)C3)n2C2CC2)C1 [Example F-650],< 3 µM,< 3 µM
Cc1ccc(NC(=O)[C@H]2CN(C(=O)N3CCN(C)CC3)C[C@@H]2c2nnc([C@H]3C[C@@H](CC(C)(C)C)C3)n2C2CC2)c(C)c1 [Example F-651],< 3 µM,< 3 µM
Cc1ccc(NC(=O)[C@H]2CN(CC(=O)N(C)C)C[C@@H]2c2nnc([C@H]3C[C@@H](CC(C)(C)C)C3)n2C2CC2)c(C)c1 [Example F-652],< 3 µM,< 3 µM
CCN(CC)C(=O)CN1C[C@H](C(=O)Nc2ccc(C)cc2C)[C@@H](c2nnc([C@H]3C[C@@H](CC(C)C)C3)n2C2CC2)C1 [Example F-653],< 3 µM,< 3 µM
CCN(CC)CC(=O)N1C[C@H](C(=O)Nc2ccc(C)cc2C)[C@@H](c2nnc([C@H]3C[C@@H](CC(C)C)C3)n2C2CC2)C1 [Example F-654],< 3 µM,> 3 µM
Cc1ccc(NC(=O)[C@H]2CN(C(=O)N3CCN(C)CC3)C[C@@H]2c2nnc([C@H]3C[C@@H](CC(C)C)C3)n2C2CC2)c(C)c1 [Example F-655],< 3 µM,< 3 µM
Cc1ccc(NC(=O)[C@H]2CN(CC(=O)N(C)C)C[C@@H]2c2nnc([C@H]3C[C@@H](CC(C)C)C3)n2C2CC2)c(C)c1 [Example F-656],< 3 µM,< 3 µM
Cc1ccc(NC(=O)[C@H]2CN(C(=O)CN(C)C)C[C@@H]2c2nnc([C@H]3C[C@@H](CC(C)C)C3)n2C2CC2)c(C)c1 [Example F-657],< 3 µM,> 3 µM
Cc1ccc(NC(=O)C[C@H](CCO)c2nnc(-c3cc(CC(C)C)on3)n2C2CC2)c(C)c1 [Example F-659],< 3 µM,< 3 µM
Cc1cc(Cl)ccc1NC(=O)C[C@H](CCO)c1nnc(-c2cc(CC(C)C)on2)n1C1CC1 [Example F-660],< 3 µM,< 3 µM
Cc1c(F)ccc(NC(=O)C[C@H](CCO)c2nnc(-c3cc(CC(C)C)on3)n2C2CC2)c1C [Example F-661],< 3 µM,< 3 µM
Cc1c(NC(=O)C[C@H](CCO)c2nnc(-c3cc(CC(C)C)on3)n2C2CC2)ccc(F)c1F [Example F-662],< 3 µM,< 3 µM
CCOC(=O)CCc1c(CCC(=O)Nc2ccc(C)cc2C)noc1[C@H]1C[C@@H](CC(C)C)C1 [Example F-663],> 3 µM,> 3 µM
Cc1ccc(NC(=O)CCc2noc([C@H]3C[C@@H](CC(C)C)C3)c2CCC(=O)O)c(C)c1 [Example F-664],> 3 µM,> 3 µM
Cc1ccc(NC(=O)CCc2noc([C@H]3C[C@@H](CC(C)C)C3)c2C2CC2)c(C)c1 [Example F-665],< 3 µM,< 3 µM
Cc1ccc(NC(=O)C(CC(=O)O)Cc2noc([C@H]3C[C@@H](CC(C)C)C3)c2C2CC2)c(C)c1 (stereo partly shown) [Example F-666],< 3 µM,> 3 µM
Cc1ccc(NC(=O)C[C@H](CC(=O)O)c2noc([C@H]3C[C@@H](CC(C)C)C3)c2C2CC2)cn1 [Example F-667],< 3 µM,> 3 µM
Cc1ccc(NC(=O)[C@@H](CC(=O)O)Cc2noc([C@H]3C[C@@H](CC(C)C)C3)c2C2CC2)c(C)c1 [Example F-668],< 3 µM,> 3 µM
Cc1cc(NC(=O)C[C@H](CC(=O)O)c2noc([C@H]3C[C@@H](CC(C)C)C3)c2C2CC2)n(C)n1 [Example F-669],< 3 µM,> 3 µM

Structure (SMILES),EC50 (mouse RORγ),EC50 (human RORγ)
Cc1cc(NC(=O)C[C@H](CC(=O)O)c2noc([C@H]3C[C@@H](CC(C)C)C3)c2C2CC2)no1 [Example F-670],< 3 µM,> 3 µM
Cc1ccc(NC(=O)[C@@H](CCC(=O)O)Cc2noc([C@H]3C[C@@H](CC(C)C)C3)c2C2CC2)c(C)c1 [Example F-671],< 3 µM,< 3 µM
Cc1ccc(NC(=O)C[C@H](CCCO)c2noc([C@H]3C[C@@H](CC(C)(C)C)C3)c2C2CC2)c(Cl)c1 [Example F-672],< 3 µM,< 3 µM
Cc1ccc(NC(=O)C[C@H](CCC(=O)O)c2noc([C@H]3C[C@@H](CC(C)(C)C)C3)c2C2CC2)c(C)n1 [Example F-673],< 3 µM,< 3 µM
Cc1ncc(NC(=O)C[C@H](CCC(=O)O)c2noc([C@H]3C[C@@H](CC(C)(C)C)C3)c2C2CC2)c(C)n1 [Example F-674],< 3 µM,< 3 µM
Cc1cc(C)c(NC(=O)C[C@H](CCC(=O)O)c2noc([C@H]3C[C@@H](CC(C)(C)C)C3)c2C2CC2)cn1 [Example F-675],< 3 µM,< 3 µM
Cc1ccc(NC(=O)C[C@H](CCC(=O)O)c2cc([C@H]3C[C@@H](CC(C)(C)C)C3)on2)c(Cl)c1 [Example F-676],< 3 µM,< 3 µM
Cc1ccc(NC(=O)[C@@H](CC(=O)O)Cc2noc([C@H]3C[C@@H](CC(C)(C)C)C3)c2C2CC2)c(Cl)c1 [Example F-677],< 3 µM,< 3 µM
Cc1noc(NC(=O)C[C@H](CCC(=O)O)c2noc([C@H]3C[C@@H](CC(C)(C)C)C3)c2C2CC2)c1C [Example F-679],< 3 µM,< 3 µM
Cc1ccc(NC(=O)C[C@H](CCC(=O)O)c2noc([C@H]3C[C@@H](CC(C)(C)C)C3)c2C2CC2)nc1C [Example F-680],< 3 µM,< 3 µM
Cc1cnc(NC(=O)C[C@H](CCC(=O)O)c2noc([C@H]3C[C@@H](CC(C)(C)C)C3)c2C2CC2)c(C)c1 [Example F-681],< 3 µM,< 3 µM
"Cc1ccc(NC(=O)C[C@H](CCC(=O)O)n2nnc([C@H]3C[C@@H](CC(C)(C)C)C3)c2C2CC2)c(Cl)c1 [Example F-682, (S)-5-(2-chloro-4-methyl-phenylcarbamoyl)-4-{5-cyclopropyl-4-[3-(2,2-dimethyl-propyl)-cyclobutyl]-[1,2,3]triazol-1-yl}pentanoic acid]",< 3 µM,< 3 µM
Cc1ccc(NC(=O)[C@H](CCC(=O)O)Cc2noc([C@H]3C[C@@H](CC(C)(C)C)C3)c2C2CC2)c(Cl)c1 [Example F-683],< 3 µM,< 3 µM
"Cc1ccc(NC(=O)[C@@H](CCC(=O)O)Cc2noc([C@H]3C[C@@H](CC(C)(C)C)C3)c2C2CC2)c(Cl)c1 [Example F-684, (S)-4-(2-chloro-4-methyl-phenylcarbamoyl)-5-{4-cyclopropyl-5-[3-(2,2-dimethyl-propyl)-cyclobutyl]-isoxazol-3-yl}-pentanoic acid]",< 3 µM,< 3 µM
Cc1ccc(NC(=O)[C@@H](CCC(=O)O)Cc2noc([C@H]3C[C@@H](CC(C)(C)C)C3)c2C2CC2)c(C)c1 [Example F-685],< 3 µM,< 3 µM
CC(=O)N1CC(c2noc([C@H]3C[C@@H](CC(C)(C)C)C3)c2C2CC2)[C@@H](C(=O)Nc2ccc(C)cc2Cl)C1 (stereo partly shown) [Example F-686],< 3 µM,< 3 µM
Cc1ccc(NC(=O)C2CN(CC(=O)O)CC2c2noc([C@H]3C[C@@H](CC(C)(C)C)C3)c2C2CC2)c(Cl)c1 (stereo partly shown) [Example F-687],< 3 µM,< 3 µM
"Cc1ccc(NC(=O)[C@H]2CN(C(=O)CCC(=O)O)C[C@@H]2c2noc([C@H]3C[C@@H](CC(C)(C)C)C3)c2C2CC2)c(Cl)c1 [Example F-688, 4-((3R,4R)-3-(2-Chloro-4-methyl-phenylcarbamoyl)-4-{4-cyclopropyl-5-[3-(2,2-dimethyl-propyl)-cyclobutyl]-isoxazol-3-yl}pyrrolidin-1-yl)-4-oxo-butanoic acid]",< 3 µM,< 3 µM
Cc1ccc(NC(=O)C[C@H](CCCO)c2noc([C@H]3C[C@@H](CC(C)(C)C)C3)c2C2CC2)c(C)n1 [Example F-689],< 3 µM,< 3 µM
CCC(C)(C)C[C@H]1C[C@@H](c2onc([C@@H](CCC(=O)O)CC(=O)Nc3ccc(C)nc3C)c2C2CC2)C1 [Example F-692],< 3 µM,< 3 µM
COc1c(C)ccc(NC(=O)C[C@H](CCCO)c2noc([C@H]3C[C@@H](CC(C)(C)C)C3)c2C2CC2)c1C [Example F-696],< 3 µM,< 3 µM
CCC(C)(C)C[C@H]1C[C@@H](c2onc([C@@H](CCC(=O)O)CC(=O)Nc3ccc(C)nc3C)c2C(F)(F)F)C1 [Example F-697],< 3 µM,< 3 µM
